Experimental data taken from patent publication USRE38117E1, “Trioxane dimer compound having antiproliferative and antitumor activities” (Hauser, Inc., priority 1995, dated 2003).

Experiments:
Type in all cases: cell-based
A498 = assay: NCI 60 cell line screen (SRB), Renal Cancer
NCI-H522 = assay: NCI 60 cell line screen (SRB), Non-Small Cell Lung Cancer
MCF7 = assay: NCI 60 cell line screen (SRB), Breast Cancer
HOP-62 = assay: NCI 60 cell line screen (SRB), Non-Small Cell Lung Cancer; details: HOP-62 (Non-Small Cell Lung Cancer)
SK-MEL-28 = assay: NCI 60 cell line screen (SRB), Melanoma; details: SK-MEL-28 (Melanoma)
A549/ATCC = assay: NCI 60 cell line screen (SRB), Non-Small Cell Lung Cancer
CCRF-CEM = assay: NCI 60 cell line screen (SRB), Leukemia
OVCAR-8 = assay: NCI 60 cell line screen (SRB), Ovarian Cancer; details: OVCAR-8 (Ovarian Cancer)
TK-10 = assay: NCI 60 cell line screen (SRB), Renal Cancer; details: TK-10 (Renal Cancer)
COLO 205 = assay: NCI 60 cell line screen (SRB), Colon Cancer; details: COLO 205 (Colon Cancer)
ACHN = assay: NCI 60 cell line screen (SRB), Renal Cancer
MCF7/ADR-RES = assay: NCI 60 cell line screen (SRB), Breast Cancer
HCC-2998 = assay: NCI 60 cell line screen (SRB), Colon Cancer; details: HCC-2998 (Colon Cancer)
NCI-H460 = assay: NCI 60 cell line screen (SRB), Non-Small Cell Lung Cancer
NCI-H226 = assay: as above
[1] = system: murine keratinocyte cell line PE; assay: Growth inhibition of PE cells (MTT assay); details: murine keratinocytes, FIGS. 1-9
Method: To determine the inhibitory effect of the trioxane dimers of the present invention on cell proliferation, screening assays were performed on a murine keratinocyte cell line PE. […] PE cell culture medium consisted of Eagle's minimal essential medium without calcium chloride (Whittaker Bioproducts, Walkersville, Ma.) supplemented with 8% chelexed fetal calf serum and 1% antibiotic-antimycotic (Gibco BRL) and the addition of CaCl2 to 0.05 mM Ca^++. […] (St. Louis, Mo.), and TPA was supplied by L. C. Services (Woburn, Ma.). L-[^14C]ornithine ([…]) was from Amersham/Searle Corp. (Arlington Heights, Ill.). Chemical solvents used in all assays of biological activity were of the highest grade commercially available. Growth Inhibition. […] A mitochondrial dehydrogenase reduces MTT to a blue formazan product with an absorbance maximum of 505 nm in DMSO; the number of viable cells can thus be determined spectrophotometrically. PE cells were seeded at a density of 5,000 cells/well in 50 μL of medium into 96-well microtiter plates. […] The plates were fed once at 48 h, with the readdition of the vitamin D3 analogs at this time. […] After 4 h, the MTT was removed and DMSO added to dissolve the blue formazan dye. Using a microtiter plate reader, the […] was then determined and cell number calculated from blank-subtracted absorbance values.

OVCAR-5 = assay: NCI 60 cell line screen (SRB), Ovarian Cancer; details: OVCAR-5 (Ovarian Cancer)
OVCAR-3 = assay: NCI 60 cell line screen (SRB), Ovarian Cancer; details: OVCAR-3 (Ovarian Cancer)
PC-3 = assay: NCI 60 cell line screen (SRB), Prostate Cancer; details: PC-3 (Prostate Cancer)
NCI-H23 = assay: NCI 60 cell line screen (SRB), Non-Small Cell Lung Cancer
MDA-N = assay: NCI 60 cell line screen (SRB), Breast Cancer
U251 = assay: NCI 60 cell line screen (SRB), CNS Cancer
HT29 = assay: NCI 60 cell line screen (SRB), Colon Cancer
SW-620 = assay: NCI 60 cell line screen (SRB), Colon Cancer; details: SW-620 (Colon Cancer)
HCT-15 = assay: NCI 60 cell line screen (SRB), Colon Cancer; details: HCT-15 (Colon Cancer)
SF-295 = assay: NCI 60 cell line screen (SRB), CNS Cancer; details: SF-295 (CNS Cancer)
T-47D = assay: NCI 60 cell line screen (SRB), Breast Cancer; details: T-47D (Breast Cancer)

COC1OC2(C)CCC3CCCC(CCOCCC4CCCC5CCC6(C)OOC45C(OC)O6)C31OO2 (stereo not drawn) [Compound 6, Trioxane Ether Dimer]
Log10GI50 (A498): >−4.00 M | Log10LC50 (A498): >−4.00 M | Log10TGI (A498): >−4.00 M | Log10GI50 (NCI-H522): −6.13 M | Log10LC50 (NCI-H522): >−4.00 M | Log10TGI (NCI-H522): −4.76 M | Log10GI50 (MCF7): −6.37 M | Log10LC50 (MCF7): >−4.00 M | Log10TGI (MCF7): >−4.00 M | Log10GI50 (HOP-62): −4.92 M | Log10LC50 (HOP-62): >−4.00 M | Log10TGI (HOP-62): >−4.00 M | Log10GI50 (SK-MEL-28): −4.24 M | Log10LC50 (SK-MEL-28): >−4.00 M | Log10TGI (SK-MEL-28): >−4.00 M | Log10GI50 (A549/ATCC): −5.79 M | Log10LC50 (A549/ATCC): >−4.00 M | Log10TGI (A549/ATCC): >−4.00 M | Log10GI50 (CCRF-CEM): −6.27 M | Log10LC50 (CCRF-CEM): >−4.00 M | Log10TGI (CCRF-CEM): −4.61 M | Log10GI50 (OVCAR-8): −6.33 M | Log10LC50 (OVCAR-8): >−4.00 M | Log10TGI (OVCAR-8): >−4.00 M | Log10GI50 (TK-10): −5.60 M | Log10LC50 (TK-10): >−4.00 M | Log10TGI (TK-10): −4.88 M | Log10GI50 (COLO 205): −6.85 M | Log10LC50 (COLO 205): −5.77 M | Log10TGI (COLO 205): −6.36 M | Log10GI50 (ACHN): −5.99 M | Log10LC50 (ACHN): >−4.00 M | Log10TGI (ACHN): >−4.00 M | Log10GI50 (MCF7/ADR-RES): −6.13 M | Log10LC50 (MCF7/ADR-RES): >−4.00 M | Log10TGI (MCF7/ADR-RES): >−4.00 M | Log10GI50 (HCC-2998): −5.94 M | Log10LC50 (HCC-2998): −4.04 M | Log10TGI (HCC-2998): −4.90 M | Log10GI50 (NCI-H460): −6.23 M | Log10LC50 (NCI-H460): >−4.00 M | Log10TGI (NCI-H460): >−4.00 M | Log10GI50 (NCI-H226): −5.36 M | Log10LC50 (NCI-H226): >−4.00 M | Log10TGI (NCI-H226): >−4.00 M | antiproliferative activity [1]: the most antiproliferative | Log10GI50 (OVCAR-5): −6.39 M | Log10LC50 (OVCAR-5): >−4.00 M | Log10TGI (OVCAR-5): >−4.00 M | Log10GI50 (OVCAR-3): −6.10 M | Log10LC50 (OVCAR-3): >−4.00 M | Log10TGI (OVCAR-3): >−4.00 M | Log10GI50 (PC-3): −7.85 M | Log10LC50 (PC-3): −4.00 M | Log10TGI (PC-3): −4.75 M | Log10GI50 (NCI-H23): −6.34 M | Log10LC50 (NCI-H23): >−4.00 M | Log10TGI (NCI-H23): >−4.00 M | Log10GI50 (MDA-N): −6.19 M | Log10LC50 (MDA-N): >−4.00 M | Log10TGI (MDA-N): >−4.00 M | Log10GI50 (U251): −6.35 M | Log10LC50 (U251): >−4.00 M | Log10TGI (U251): >−4.00 M | Log10GI50 (HT29): −6.24 M | Log10LC50 (HT29): >−4.00 M | Log10TGI (HT29): >−4.00 M | Log10GI50 (SW-620): −6.66 M | Log10LC50 (SW-620): >−4.00 M | Log10TGI (SW-620): >−4.00 M | Log10GI50 (HCT-15): −7.28 M | Log10LC50 (HCT-15): >−4.00 M | Log10TGI (HCT-15): >−4.00 M | Log10GI50 (SF-295): −5.61 M | Log10LC50 (SF-295): >−4.00 M | Log10TGI (SF-295): >−4.00 M

C[C@@H]1CC[C@H]2[C@@H](C)C(=O)O[C@@H]3O[C@@]4(C)CC[C@@H]1[C@]32OO4 [QHS, 3,6,9-trimethyl-9,10b-epidioxyperhydropyrano[4,3,2-jk]benzoxepin-2-one, reference compound]
Log10GI50 (A498): >−4.00 M | Log10LC50 (A498): >−4.00 M | Log10TGI (A498): >−4.00 M | Log10GI50 (MCF7): >−4.00 M | Log10LC50 (MCF7): >−4.00 M | Log10TGI (MCF7): >−4.00 M | Log10GI50 (HOP-62): >−4.00 M | Log10LC50 (HOP-62): >−4.00 M | Log10TGI (HOP-62): >−4.00 M | Log10GI50 (SK-MEL-28): >−4.00 M | Log10LC50 (SK-MEL-28): >−4.00 M | Log10TGI (SK-MEL-28): >−4.00 M | Log10GI50 (A549/ATCC): −4.17 M | Log10LC50 (A549/ATCC): >−4.00 M | Log10TGI (A549/ATCC): >−4.00 M | Log10GI50 (OVCAR-8): >−4.00 M | Log10LC50 (OVCAR-8): >−4.00 M | Log10TGI (OVCAR-8): >−4.00 M | Log10LC50 (T-47D): >−4.00 M | Log10TGI (T-47D): >−4.00 M | Log10GI50 (TK-10): >−4.00 M | Log10LC50 (TK-10): >−4.00 M | Log10TGI (TK-10): >−4.00 M | Log10GI50 (COLO 205): >−4.00 M | Log10LC50 (COLO 205): >−4.00 M | Log10TGI (COLO 205): >−4.00 M | Log10GI50 (ACHN): >−4.00 M | Log10LC50 (ACHN): >−4.00 M | Log10TGI (ACHN): >−4.00 M | Log10GI50 (HCC-2998): >−4.00 M | Log10LC50 (HCC-2998): >−4.00 M | Log10TGI (HCC-2998): >−4.00 M | Log10GI50 (NCI-H460): >−4.00 M | Log10LC50 (NCI-H460): >−4.00 M | Log10TGI (NCI-H460): >−4.00 M | Log10GI50 (NCI-H226): >−4.00 M | Log10LC50 (NCI-H226): >−4.00 M | Log10TGI (NCI-H226): >−4.00 M | Log10GI50 (OVCAR-5): >−4.00 M | Log10LC50 (OVCAR-5): >−4.00 M | Log10TGI (OVCAR-5): >−4.00 M | Log10GI50 (PC-3): −4.17 M | Log10LC50 (PC-3): >−4.00 M | Log10TGI (PC-3): >−4.00 M | Log10GI50 (NCI-H23): >−4.00 M | Log10LC50 (NCI-H23): >−4.00 M | Log10TGI (NCI-H23): >−4.00 M | Log10GI50 (MDA-N): >−4.00 M | Log10LC50 (MDA-N): >−4.00 M | Log10TGI (MDA-N): >−4.00 M | Log10GI50 (U251): >−4.00 M | Log10LC50 (U251): >−4.00 M | Log10TGI (U251): >−4.00 M | Log10GI50 (HT29): >−4.00 M | Log10LC50 (HT29): >−4.00 M | Log10TGI (HT29): >−4.00 M | Log10GI50 (SW-620): >−4.00 M | Log10LC50 (SW-620): >−4.00 M | Log10TGI (SW-620): >−4.00 M | Log10GI50 (HCT-15): >−4.00 M | Log10LC50 (HCT-15): >−4.00 M | Log10TGI (HCT-15): >−4.00 M
